The values below come from PMC9721090 (FASEB BioAdvances, 2022).

The target in test [1] is β2AR (Homo sapiens, UniProt P07550). Format: binding.
In test [2] the target is β2AR-Gαs (Homo sapiens, UniProt P07550). The test can be described thus: Saturation binding of [3H] DHA, membranes of t β2AR-Gαs HEK 293 cells.
Test [3] deals with T1, β2AR-βarr2 (Homo sapiens, UniProt P07550+P32121). Kind of test: Saturation binding of [3H] DHA, membranes of t β2AR-βarr2 HEK 293 cells.
For test [4], the target named is T1, β2AR-βarr2. Kind of test: ERK1/2 phosphorylation. Format: cell-based. The note with it: t β2AR-βarr2 HEK 293; PTX 100ng/ml overnight.

Structures can show the parent of a compound that is named as a salt.

β2AR, sequence (P07550 whole entry): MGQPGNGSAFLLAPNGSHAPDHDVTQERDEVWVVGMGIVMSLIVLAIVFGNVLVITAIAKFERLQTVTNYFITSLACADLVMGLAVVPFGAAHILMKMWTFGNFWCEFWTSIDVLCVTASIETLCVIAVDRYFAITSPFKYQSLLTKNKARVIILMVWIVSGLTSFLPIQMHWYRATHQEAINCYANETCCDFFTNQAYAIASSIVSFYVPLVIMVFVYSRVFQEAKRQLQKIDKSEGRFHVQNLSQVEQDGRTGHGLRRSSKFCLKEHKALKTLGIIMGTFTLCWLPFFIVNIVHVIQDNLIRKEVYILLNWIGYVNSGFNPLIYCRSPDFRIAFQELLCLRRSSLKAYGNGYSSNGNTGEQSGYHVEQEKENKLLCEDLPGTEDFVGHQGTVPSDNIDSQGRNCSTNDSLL

For the molecule `CCCc1ccccc1OC[C@@H](O)CNC(C)C` [[3H] dihydroalprenolol, Dihydroalprenolol hydrochloride, levo‐[ring, propyl‐^3H(N)]‐], the Kd was 148 ± 28 pM in test [1], 213 ± 49 pM in test [2] and 233 ± 22 pM in test [3].

As for pertussis toxin, the “effect on constitutive ERK1/2 phosphorylation” value in test [4] is “no effect”.

A word on the Kd: it is a measure of binding affinity in units of concentration. Higher therefore signals a looser complex.
